According to patent publication US20060287347A1, “Methods for treating smooth muscle disorders using trospium” (priority 2005, published 2006):
Read-outs that look alike come from different tables or passages of the source.

Key:
[1] = tested on: carbachol-induced contractions of urinary bladder strips; test: Antimuscarinic activity on bladder smooth muscle strips (carbachol-induced contractions); type: cell-based, guinea pig; details: Cavia porcellus, read-out: KB, inhibition of carbachol-induced contractions
Experimental: • Experiments have now been performed using methods described by Kachur et al, 1988, J Pharmacol Exp Ther 247: 867-872) and Noronha-Blob et al. J Pharmacol Exp Ther 256: 562-567). Strips of tissue (approximately 10 mm long and 1.5 mm wide) were removed from the urinary bladder of male guinea pigs. The tissues were suspended in an oxygenated buffer of the following composition, in mM: NaCl 133; KCl 4.7; CaCl2 2.5; MgSO4 0.6; […] The smooth muscle strips were maintained at or about 37.5° C. in tissue chambers and allowed to equilibrate with the bathing solution for one hour before proceeding with the experiment. […] R., Wright S. E., Aberg […]. 1998, 48: 1012-1018).

learning behavior = test: Cognitive side effects, Test Protocol 1: T-shaped maze learning; type: in vivo, rat; details: for Effect on learning behavior (time to choose the correct arm of the T-maze): conscious rats, naive animals
Experimental: Conscious rats are used. The animals are placed at the base of a T-shaped maze with a reward placed in one of the arms of the maze. The effect of the test article on learning is determined by investigating the time it takes in the maze before the rats choose the correct arm of the maze. Experiments were also performed in rats that had been pretreated with phenylephrine to increase the permeability of the blood-brain barrier. Control groups of animals were treated with placebo (vehicle only) or with oxybutynin.

[2] = tested on: behavioral, neurological, autonomic and toxicity changes; test: Cognitive side effects, Test Protocol 2: modified Irwin test; type: in vivo, mouse; details: oral dosing
Experimental: Modified Irwin tests were performed. This is a routine neuro-pharmacological test method. Conscious mice were used. The procedure involved an initial phase of undisturbed observation and a later manipulative phase. An animal's assessment started by observing its undisturbed behavior in housing (body position, locomotor activity, etc.). Thereafter the animal was transferred by tail on the working table for the manipulative phase (spatial locomotion, gait, aggressiveness, etc.). The occurrence of any unexpected state was noted. The responses to test substances were assessed at 60 min, 120 min and 24 hrs after dosing. Animals were dose orally with trospium chloride, some groups of animals had been pretreated with phenylephrine to increase the permeability of the blood-brain barrier. Criteria included behavioral, neurological, autonomic and toxicity changes in comparison with vehicle-treated groups. The results were expressed for each group as the number of animals displaying behavioral changes versus the corresponding control group at each observation time. No statistical analysis was carried out since the lack of statistically significant differences were obvious to the investigator.

[3] = molecular target: T1, human recombinant muscarinic receptor M-4 (Homo sapiens, UniProt P08173); test: Ligand binding, affinity for muscarinic receptors (M-4); details: membranes from SF9 cells, radioligand 3H scopolamine methylchloride; read-out: Affinity (negative logarithm of the dissociation constant Ki), M-4 (converted)
T1 sequence (P08173 1-479): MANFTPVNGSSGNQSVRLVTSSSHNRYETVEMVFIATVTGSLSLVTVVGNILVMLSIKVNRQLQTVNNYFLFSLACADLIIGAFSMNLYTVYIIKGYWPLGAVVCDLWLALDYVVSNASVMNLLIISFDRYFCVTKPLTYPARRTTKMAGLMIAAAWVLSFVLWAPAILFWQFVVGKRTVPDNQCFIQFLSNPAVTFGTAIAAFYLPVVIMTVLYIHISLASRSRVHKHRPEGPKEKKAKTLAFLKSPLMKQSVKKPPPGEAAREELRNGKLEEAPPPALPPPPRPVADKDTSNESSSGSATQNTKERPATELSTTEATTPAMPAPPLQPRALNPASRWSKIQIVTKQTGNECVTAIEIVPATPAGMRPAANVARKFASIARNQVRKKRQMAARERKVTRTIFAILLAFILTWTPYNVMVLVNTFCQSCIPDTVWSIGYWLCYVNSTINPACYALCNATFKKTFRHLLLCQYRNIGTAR
Experimental: The experiments were carried out on membranes prepared from SF9 cells that expressed human recombinant muscarinic receptor subtypes. After incubation with the test article and the proper radioligand (^3H scopolamine methylchloride) and washing, bound radioactivity was determined with a liquid scintillation counter, using a commercial scintillation cocktail. The specific radioligand binding to a muscarinic receptor was defined as the difference between total binding and nonspecific binding determined in the presence of an excess of unlabelled atropine.

[4] = male guinea pig urinary bladder strips

Row | SMILES | Kb [1, 4] [nM] | Effect on learning behavior (time to choose the correct arm of the T-maze) (learning behavior; ongoing studies) | Kb [1] [nM] | Ki [3] [nM] | further results
1 | CC(CC(c1ccccc1)c1ccccc1)NC(C)(C)C (stereo not drawn) [terodiline] | 1.5 to 5.5 |  |  |  | 
2 | O=C(O[C@H]1C[C@H]2CC[C@@H](C1)[N+]21CCCC1)C(O)(c1ccccc1)c1ccccc1 [Trospium, endo-3-[(hydroxydiphenyl-acetyl)oxy]spiro[8-azoniabicyclo[3.2.1]octane-8,1′-pyrrolidinium]chloride] |  | does not influence the learning behavior | 1.5 to 5.5 |  | Further impairment of learning behavior (learning behavior; rats in which a learning disorder has been induced with oxybutynin, ongoing studies): no further impairment of learning behavior; Impairment of learning behavior after phenylephrine pretreatment (learning behavior; rats pretreated with phenylephrine to increase blood-brain barrier permeability): did not uncover any impairment of learning behavior; Behavioral changes in modified Irwin test versus control group ([2]; conscious mice, assessed at 60 min, 120 min and 24 hrs): did not influence the test results; Behavioral changes in modified Irwin test after phenylephrine pretreatment ([2]; mice pretreated with phenylephrine to increase BBB permeation): no significant effects
3 | Cc1ccc(O)c([C@H](CCN(C(C)C)C(C)C)c2ccccc2)c1 [Tolterodine] |  |  | 1.5 to 5.5 | 12.6 | 
4 | NC(=O)C(c1ccccc1)(c1ccccc1)[C@@H]1CCN(CCc2ccc3c(c2)CCO3)C1 [Darifenacin] |  |  |  | 39.8 | 
5 | CCN(CC)CC#CCOC(=O)C(O)(c1ccccc1)C1CCCCC1 (stereo not drawn) [Oxybutynin] | 1.5 to 5.5 | learning is delayed |  |  | 
